Earlier results as cited in US4873092A, “Slow-releasing preparation” (Murata Kikai Kabushiki Kaisha, priority 1987, dated 1989).

Settings: mouce

For COc1cccc2c1C(=O)c1c(O)c3c(c(O)c1C2=O)C[C@@](O)(C(=O)CO)C[C@@H]3O[C@H]1C[C@H](N)[C@H](O)[C@H](C)O1 [Adriamycin], the LD50 value is listed as 9.8 mg/kg.
